# According to patent publication US20250282799A1, “SUBSTITUTED PYRIDO[4,3-d]PYRIMIDINES AS KRAS MODULATORS” (Alterome Therapeutics, Inc., priority 2023, published 2025):
# System: KRAS G12V dependent lung adenocarcinoma cell line, NCI-H441
# Test: Cellular pERK (Thr202/Tyr204) FRET/HTRF assay
# Type: cell-based
# Details: Homo sapiens, NCI-H441, cellular pERK (Thr202/Tyr204) HTRF, NCI-H441 cells
# Outline: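 NCI-H441, overnight plating → cpd 1 hr, 37 °C/5% CO2; DMSO neg ctrl. Lyse (phosphatase inhibitors), add donor/acceptor Abs, RT incubation, HTRF read. IC50 by curve fit.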
row,Structure (SMILES),IC50 [nM]
1,"[2H]C([2H])(Oc1nc(N2CCOC[C@H]3[C@H](F)[C@H]32)c2cnc(-c3cc(N)cc(C)c3C(F)(F)F)c(F)c2n1)[C@@]12CCCN1C[C@H](F)C2 [Example 168, 3-(8-fluoro-4-((1S,7S,8S)-8-fluoro-5-oxa-2-azabicyclo[5.1.0]octan-2-yl)-2-(((2R,7aS)-2-fluorotetrahydro-1H-pyrrolizin-7a(5H)-yl)methoxy-d2)pyrido[4,3-d]pyrimidin-7-yl)-5-methyl-4-(trifluoromethyl)aniline]",500 to 10000
2,"[2H]C([2H])(Oc1nc(N2CCOC[C@H]3[C@H](F)[C@H]32)c2cnc(-c3c(F)c(N)cc(C)c3C(F)(F)F)c(F)c2n1)[C@@]12CCCN1C[C@H](F)C2 [Example 271, 2-fluoro-3-(8-fluoro-4-((1S,7S,8S)-8-fluoro-5-oxa-2-azabicyclo[5.1.0]octan-2-yl)-2-(((2R,7aS)-2-fluorotetrahydro-1H-pyrrolizin-7a(5H)-yl)methoxy-d2)pyrido[4,3-d]pyrimidin-7-yl)-5-methyl-4-(trifluoromethyl)aniline]",50 to 500
3,"C#Cc1c(F)ccc2cc(N)cc(-c3ncc4c(N5CCOC[C@H]6[C@H](F)[C@H]65)nc(OC[C@]56C[C@]7(C[C@@H]7F)CN5CCC65CC5)nc4c3F)c12 (single isomer, unassigned) [Example 232]",< 50
4,"[2H]C([2H])(Oc1nc(N2CCC(=O)C[C@@H]3[C@H](F)[C@@H]32)c2cnc(-c3cc(N)cc4cc(F)c(F)c(C#C)c34)c(F)c2n1)[C@@]12CCCN1C[C@H](F)C2 [Example 194, (1R,7S,8S)-2-(7-(3-amino-8-ethynyl-6,7-difluoronaphthalen-1-yl)-8-fluoro-2-(((2R,7aS)-2-fluorotetrahydro-1H-pyrrolizin-7a(5H)-yl)methoxy-d2)pyrido[4,3-d]pyrimidin-4-yl)-8-fluoro-2-azabicyclo[5.1.0]octan-5-one]",50 to 500
5,"[2H]C([2H])(Oc1nc(N2CCC=C[C@H]3[C@H](F)[C@H]32)c2cnc(-c3cccc4ccc(F)c(C#C)c34)c(F)c2n1)[C@@]12CCCN1C[C@H](F)C2 [Example 147, 7-(8-Ethynyl-7-fluoronaphthalen-1-yl)-8-fluoro-4-((1S,7R,8S)-8-fluoro-2-azabicyclo[5.1.0]oct-5-en-2-yl)-2-(((2R,7aS)-2-fluorotetrahydro-1H-pyrrolizin-7a(5H)-yl)methoxy-d2)pyrido[4,3-d]pyrimidine]",< 50
6,"[2H]C([2H])(Oc1nc(N2CCC=C[C@@H]3[C@@H](F)[C@@H]32)c2cnc(-c3cc(N)cc4cc(F)c(F)c(C#C)c34)c(F)c2n1)[C@@]12CCCN1C[C@H](F)C2 [Example 99, 5-ethynyl-6,7-difluoro-4-(8-fluoro-4-((1R,7S,8R)-8-fluoro-2-azabicyclo[5.1.0]oct-5-en-2-yl)-2-(((2R,7aS)-2-fluorotetrahydro-1H-pyrrolizin-7a(5H)-yl)methoxy-d2)pyrido[4,3-d]pyrimidin-7-yl)naphthalen-2-amine]",< 50
7,"C#Cc1c(F)ccc2cc(N)cc(-c3ncc4c(N5CCOC[C@H]6[C@H](F)[C@H]65)nc(OC[C@@]56CCCN5C[C@@]5(C[C@H]5F)C6)nc4c3F)c12 (single isomer, unassigned) [Example 253]",< 50
8,"C#Cc1c(F)ccc2cc(N)cc(-c3ncc4c(N5CCOC[C@H]6[C@H](F)[C@H]65)nc(OC[C@]56C[C@]7(C[C@H]7F)CN5CCC65CC5)nc4c3F)c12 (single isomer, unassigned) [Example 231]",< 50

# Second part, the compound after the results:
row,IC50 [nM],Structure (SMILES)
1,< 50,"[2H]C([2H])(F)Oc1c(F)ccc2cc(N)cc(-c3ncc4c(N5CCOC[C@H]6[C@H](F)[C@H]65)nc(OC[C@]56CC7(CC7)CN5CCC65CC5)nc4c3F)c12 [Example 228, 4-(2-(((R)-dihydro-5′H-dispiro[cyclopropane-1,1′-pyrrolizine-6′,1″- cyclopropan]-7a′(7′H)-yl)methoxy)-8-fluoro-4-((1S,7S,8S)-8-fluoro-5-oxa-2-azabicyclo[5.1.0]octan-2-yl)pyrido[4,3-d]pyrimidin-7-yl)-6-fluoro-5-(fluoromethoxy-d2)naphthalen-2-amine]"
2,< 50,"C#Cc1c(F)ccc2cc(N)cc(-c3ncc4c(N5CCOC[C@H]6[C@H](F)[C@H]65)nc(OC[C@@]56CCCN5C[C@]5(C[C@H]5F)C6)nc4c3F)c12 (single isomer, unassigned) [Example 254]"
3,< 50,"C#Cc1c(F)ccc2cc(N)cc(-c3ncc4c(N5CCCC[C@H]6[C@H](F)[C@H]65)nc(OC[C@]56C/C(=C/F)CN5CCC65CC5)nc4c3F)c12 [Example 404, 5-Ethynyl-6-fluoro-4-(8-fluoro-4-((1S,7R,8S)-8-fluoro-2-azabicyclo[5.1.0]octan-2-yl)-2-(((R,Z)-6′-(fluoromethylene)tetrahydrospiro[cyclopropane-1,1′-pyrrolizin]-7a′(5′H)-yl)methoxy)pyrido[4,3-d]pyrimidin-7-yl)naphthalen-2-amine]"
4,< 50,"C#Cc1c(F)ccc2cc(N)cc(-c3ncc4c(N5CCOC[C@H]6[C@H](F)[C@H]65)nc(OC[C@@]56CCCN5C[C@@H](C)C6)nc4c3F)c12 (single isomer, unassigned) [Example 209]"
5,< 50,"C#Cc1c(F)ccc2cccc(-c3ncc4c(N5CCCC[C@H]6[C@H](F)[C@H]65)nc(OC[C@]56CC(=C(F)F)CN5CCC65CC5)nc4c3F)c12 [Example 405, (R)-6′-(Difluoromethylene)-7a′-(((7-(8-ethynyl-7-fluoronaphthalen-1-yl)-8-fluoro-4-((1S,7R,8S)-8-fluoro-2-azabicyclo[5.1.0]octan-2-yl)pyrido[4,3-d]pyrimidin-2-yl)oxy)methyl)hexahydrospiro[cyclopropane-1,1′-pyrrolizine]]"
6,< 50,"[2H]C([2H])(Oc1nc(N2CCOC[C@H]3[C@H](F)[C@H]32)c2cnc(-c3cc(O)cc4ccc(C)c(C#C)c34)c(F)c2n1)[C@@]12CCCN1C[C@H](F)C2 [Example 324, 5-ethynyl-4-(8-fluoro-4-((1S,7S,8S)-8-fluoro-5-oxa-2-azabicyclo[5.1.0]octan-2-yl)-2-(((2R,7aS)-2-fluorotetrahydro-1H-pyrrolizin-7a(5H)-yl)methoxy-d2)pyrido[4,3-d]pyrimidin-7-yl)-6-methylnaphthalen-2-ol]"
7,< 50,"C#Cc1c(F)c(F)cc2cccc(-c3ncc4c(N5CCOC[C@H]6[C@H](F)[C@H]65)nc(OC[C@@]56CCCN5CC(=C(F)F)C6)nc4c3F)c12 [Example 105, (1S,7S,8S)-2-(2-(((S)-2-(difluoromethylene)tetrahydro-1H-pyrrolizin-7a(5H)-yl)methoxy)-7-(8-ethynyl-6,7-difluoronaphthalen-1-yl)-8-fluoropyrido[4,3-d]pyrimidin-4-yl)-8-fluoro-5-oxa-2-azabicyclo[5.1.0]octane]"
8,< 50,"[2H]C([2H])(F)Oc1c(F)ccc2cccc(-c3ncc4c(N5CCOC[C@H]6[C@H](F)[C@H]65)nc(OC[C@@]56CCCN5C/C(=C\F)C6)nc4c3F)c12 [Example 157, (1S,7S,8S)-8-fluoro-2-(8-fluoro-7-(7-fluoro-8-(fluoromethoxy-d2)naphthalen-1-yl)-2-(((S,Z)-2-(fluoromethylene)tetrahydro-1H-pyrrolizin-7a(5H)-yl)methoxy)pyrido[4,3-d]pyrimidin-4-yl)-5-oxa-2-azabicyclo[5.1.0]octane]"
9,< 50,"[2H]C1([2H])CC2(CC2)[C@@]2(C([2H])([2H])Oc3nc(N4CCOC[C@H]5[C@H](F)[C@H]54)c4cnc(-c5cc(N)cc6ccc(F)c(C#C)c56)c(F)c4n3)C[C@]([2H])(F)CN12 (single isomer, unassigned) [Example 203]"

# Same assay, conditions: Homo sapiens, NCI-H441, cellular pERK HTRF, NCI-H441 (KRAS G12V) cells
row,IC50 [nM],Structure (SMILES)
1,< 50,"[2H]C([2H])(Oc1nc(N2CCCC[C@H]3[C@H](F)[C@H]32)c2cnc(-c3cc(O)cc4ccc(F)c(C#C)c34)c(C)c2n1)[C@@]12CCCN1C[C@H](F)C2 [Example 463, 5-Ethynyl-6-fluoro-4-(4-((1S,7R,8S)-8-fluoro-2-azabicyclo[5.1.0]octan-2-yl)-2-(((2R,7aS)-2-fluorotetrahydro-1H-pyrrolizin-7a(5H)-yl)methoxy-d2)-8-methylpyrido[4,3-d]pyrimidin-7-yl)naphthalen-2-ol]"

# Same assay, conditions: Homo sapiens, NCI-H441, pERK HTRF, NCI-H441 cells (KRAS G12V)
row,IC50 [nM],Structure (SMILES)
1,50 to 500,"[2H]C([2H])(Oc1nc(N2CCC3CC3CC2)c2cnc(-c3cc(N)cc4cc(F)c(F)c(C#C)c34)c(F)c2n1)[C@@]12CCCN1C[C@H](F)C2 (stereo partly drawn) [Example 9, 4-(4-(4-Azabicyclo[5.1.0]octan-4-yl)-8-fluoro-2-(((2R,7aS)-2-fluorotetrahydro-1H-pyrrolizin-7a(5H)-yl)methoxy-d2)pyrido[4,3-d]pyrimidin-7-yl)-5-ethynyl-6,7-difluoronaphthalen-2-amine]"
2,< 50,"[2H]C([2H])([2H])Oc1c(F)c(F)c(F)c2cc(N)cc(-c3ncc4c(N5CCCO[C@H]6[C@H](F)[C@H]65)nc(OC([2H])([2H])[C@@]56CCCN5C[C@H](F)C6)nc4c3F)c12 [Example 77, 6,7,8-Trifluoro-4-(8-fluoro-4-((1R,7S,8R)-8-fluoro-2-oxa-6-azabicyclo[5.1.0]octan-6-yl)-2-(((2R,7aS)-2-fluorotetrahydro-1H-pyrrolizin-7a(5H)-yl)methoxy-d2)pyrido[4,3-d]pyrimidin-7-yl)-5-(methoxy-d3)naphthalen-2-amine]"

# Same assay, conditions: cellular pERK (Thr202/Tyr204) HTRF, NCI-H441 cells
row,IC50 [nM],Structure (SMILES)
1,< 50,"[2H]C([2H])(Oc1nc(N2CCOC[C@H]3[C@H](F)[C@H]32)c2cc(C#N)c(-c3ccc(F)c4sc(N)c(C#N)c34)c(F)c2n1)[C@@]12CCCN1C[C@H](F)C2 (atropisomer, axis not shown; (aS)) [Example 349, (S)-7-(2-amino-3-cyano-7-fluorobenzo[b]thiophen-4-yl)-8-fluoro-4-((1S,7S,8S)-8-fluoro-5-oxa-2-azabicyclo[5.1.0]octan-2-yl)-2-(((2R,7aS)-2-fluorotetrahydro-1H-pyrrolizin-7a(5H)-yl)methoxy-d2)quinazoline-6-carbonitrile]"
